Measured values from patent publication US20210002725A1, “METHODS FOR THE DIAGNOSIS OF METABOLIC DISORDERS USING EPIMETABOLIC SHIFTERS, MULTIDIMENSIONAL INTRACELLULAR MOLECULES, OR ENVIRONMENTAL INFLUENCES” (Berg LLC, priority 2009, published 2021).
Where “and” joins values, the source holds several entries; their conditions need not be identical. Identical values can stand only once. Entries after “also recorded” stand apart in the source; their conditions may differ.

Key:
[1] = tested on: variety of cell types; assay: Western blot analysis (Bcl-xL, Vimentin, oxidative phosphorylation complexes, mitochondrial membrane integrity proteins); type: cell-based; details: 50 or 100 μM Q10
Method: Approximately 50 μg of protein were assayed per sample by immunoblotting. All treatments were run in triplicate with controls. […] The primary antibodies were incubated overnight at 4 degrees C. in a 5% BSA and TBST solution. Secondary antibodies were incubated for one hour at 4 degrees. All antibodies were purchased from Cell Signaling Technology. Antibodies were used at a ratio of 1:1000, with the exception of βActin at a ratio of 1:5000. Blots were developed and results were quantified using the NIH Java based densitometer analysis software Image J. All blots were also probed for and normalized to their respective βActin expression.
The first experiment processed and evaluated by Western blot and 2-D gel electrophoresis was carried out on the skin cancer cell line SKMEL-28.
A variety of cell types were evaluated by Western blot analysis against an antibody for Bcl-xL (FIG. 14), an antibody for Vimentin (FIG. 15), a series of antibodies for mitochondrial oxidative phosphorylation function (FIGS. 16-21) and against a series of antibodies related to mitochondrial membrane integrity (FIGS. 22-27).

[2] = tested on: Pyruvate Kinase M2 (PKM2); assay: Western blot of Pyruvate Kinase M2 levels in cells treated with Coenzyme Q10; type: cell-based, human
Method: The samples were processed and run on a 4-12% Bis-Tris Novex NuPAGE gel as described above. The gels were run, transferred and stained essentially as described above.
The lactate dehydrogenase blots were stripped by incubating for 30 minutes with methanol, followed by two 10 minute washes with TBS-T, then 30 minutes of incubation with Stripping buffer at 50 deg C., and followed by two washes with 100 ml or more of TBS-T for 30′ each. The 2 blots were scanned in laser scanner to check for complete stripping. The blots were activated with methanol for 5 seconds, washed with water for 5 minutes, and TBST for 15 minutes. The blots were blocked for 1 hour with 5% blocking reagent in TBS-T at room temperature and then washed 3 times with TBS-T (1×-15′; 2×5′ each) and probed with the rabbit polyclonal antibody for Pyruvate Kinase M2 in 5% BSA (NOVUS BIOLOGICALS catalog #H00005315-D01P) at 1:500 dilution overnight at 4 deg C with shaking. After the overnight incubation with primary antibody for Pyruvate Kinase M2, the membranes were washed 3 times with TBS-T (1×-15′; 2×5′ each) and probed with the secondary antibody (antirabbit; 1:10,000 dilution) for 1 h on the orbital tilting shaker at room temperature. After 1 h of incubation with secondary antibodies, the blots were washed 3 times with TBS-T (1×-15′; 2×5′ each) and then incubated with ECF reagent for 5 minutes and then each blot scanned with 5100 Fuji Laser scanner at 25 uM resolution, 16 bit, green laser, at 400V and at 500 V.
The HASMC samples were processed and the gels were run, transferred, stained and scanned essentially as described above.
The above blots were stripped by incubating for 30 minutes with methanol, followed by two 10 minute washes with TBS-T, then 30 minutes of incubation with Stripping buffer at 50 deg C., and followed by two washes with 100 ml or more of TBS-T for 30′ each. The blots were scanned in laser scanner to check for complete stripping. The blots were activated with methanol for 5 seconds, washed with water for 5 minutes, and TBST for 15 minutes. The blots were blocked for 1 hour with 5% blocking reagent in TBS-T at room temperature and then washed 3 times with TBS-T (1×-15′; 2×5′ each) and probed with the primary antibody for PKM2, SDHB or SDHC in 5% BSA in TBS-T by incubation overnight at 4 deg C. with gentle shaking. The primary antibody for SDHC (ABNOVA H00006391-M02; antimouse) was at 1:500 dilution. The primary antibody for SDHB was from Abcam ab4714-200; antimouse; at 1:1000 dilution. The primary antibody for Pyruvate Kinase M2 (PKM2) was from Novus Biologicals H00005315-DOIP; antirabbit; at 1:500 dilution. After incubation with primary antibodies, the membranes were washed 3 times with TBS-T (1×-15′; 2×5′ each) and probed with the secondary antibody (SDHB & C antimouse; and PKM2 antirabbit; 1:10,000 dilution) for 1 hon the orbital tilting shaker at room temperature. After 1 h of incubation, the blots were washed 3 times with TBS-T (1×-15′; 2×5′ each) and incubated with ECF reagent for 5 minutes and then each blot scanned with 5100 Fuji Laser scanner at 25 uM resolution, 16 bit, green laser, at 400V and at 500 V.

[3] = tested on: key proteins; assay: Summary of key proteins modulated by Q10
[4] = tested on: SCC cells; details: 100 μM Q10; 6 and/or 24 hr
[5] = tested on: PaCa2 cells; assay: Nexin assay for early and late apoptosis (flow cytometry); type: cell-based; details: 50 μM and 100 μM Q10, 24 hours
Text: (§1) The 7AAD dye will enter into cells with permeabilized cell membranes; primarily those cells that are in late apoptosis. Annexin-V-PE is a dye that binds to Phosphotidyl serine, which is exposed on the outer surface of the plasma membrane in early apoptotic cells. The Nexin reagent thus can be used to differentiate between different populations of apoptotic cells in a flow cytometer.

[6] = tested on: MCF-7 cells; assay: as above; type: cell-based; details: 50 μM and 100 μM Q10, 24 hours
Text: as §1

[7] = tested on: HepG2 cells; assay: as above; type: cell-based; details: 50 μM Q10, 24 hours
Text: as §1

## COC1=C(OC)C(=O)C(C/C=C(\C)CC/C=C(\C)CC/C=C(\C)CC/C=C(\C)CC/C=C(\C)CC/C=C(\C)CC/C=C(\C)CC/C=C(\C)CC/C=C(\C)CCC=C(C)C)=C(C)C1=O [Q10, Coenzyme Q10]
[1]
  levels of examined proteins (Western blot): several of the examined proteins were upregulated or downregulated
[2]; HASMC, 5 g, 48 h, 50 μM
  PKM2 Upper Band Normalized Intensity: 811
[2]; HASMC, 5 g, 48 h, 100 μM
  PKM2 Upper Band Normalized Intensity: 611
[2]; HASMC, 22 G, 24 h, 50 μM
  PKM2 Upper Band Normalized Intensity: 477
[2]; HASMC, 22 G, 24 h, 100 μM
  PKM2 Upper Band Normalized Intensity: 701
[2]; HASMC, 22 G, 48 h, 50 μM
  PKM2 Upper Band Normalized Intensity: 595
[2]; HASMC, 22 G, 48 h, 100 μM
  PKM2 Upper Band Normalized Intensity: 496
[2]; HepG2, 5 g, 24 h, 50 μM
  PKM2 Upper Band Normalized Volume: 29269
[2]; HepG2, 5 g, 24 h, 100 μM
  PKM2 Upper Band Normalized Volume: 18307
[2]; HepG2, 5 g, 48 h, 50 μM
  PKM2 Upper Band Normalized Intensity: 303
[2]; HepG2, 5 g, 48 h, 100 μM
  PKM2 Upper Band Normalized Intensity: 354
[2]; HepG2, 22 G, 24 h, 50 μM
  PKM2 Upper Band Normalized Volume: 22294
[2]; HepG2, 22 G, 24 h, 100 μM
  PKM2 Upper Band Normalized Volume: 19560
[2]; HepG2, 22 G, 48 h, 50 μM
  PKM2 Upper Band Normalized Intensity: 562
[2]; HepG2, 22 G, 48 h, 100 μM
  PKM2 Upper Band Normalized Intensity: 601
[3]
  Key proteins modulated: Apoptotic response: Bcl-xl, Bcl-xS, BNIP-2, Bcl-2, Birc6,; also recorded: Bcl-2-L11 (Bim), XIAP, BRAF, Bax,; also recorded: c-Jun, Bmf, PUMA, cMyc
  Key proteins modulated: Biosynthetic pathway: COQ1, COQ3, COQ6, prenyltransferase, and 4-hydroxybenzoate
  Key proteins modulated: Oxidative phosphorylation metabolism: Cytochrome c, complex I, complex II,; also recorded: complex III, complex IV,
  Key proteins modulated: Pentose Phosphate Pathway: transaldolase 1
  Key proteins modulated: Transcription factors: HNF4alpha
[4]
  Response (direction of protein spot change): Increase; also recorded: hr, decrease
[5]
  increase in early and late apoptotic cells: 5-10 % of gated cells
[6]
  apoptotic population: increase only in early apoptotic population
[7]
  increase of gated population in late apoptotic and early apoptotic stages: about 20%
